Experimental data from patent publication US8815892B2, “P2X7R antagonists and their use” (Affectis Pharmaceuticals AG, priority 2008, dated 2014).

Legend:
EAE in SJL mice = test: Relapsing-remitting experimental autoimmune encephalomyelitis (EAE), PLP139-151/CFA model of multiple sclerosis; type: in vivo, mouse; details: SJL female mice
Protocol: The therapeutic effects of the compounds of the present invention were assessed in a mouse model of relapsing-remitting multiple sclerosis MS. The relapsing-remitting experimental autoimmune encephalomyelitis (EAE) which develops in SJL mice after immunization with the Proteolipid Protein PLP139-151 and Complete Freund's Adjuvant (CFA) is the mouse model which most closely resembles human remitting/relapsing MS (see Webb et al (2004) J Neuroimmunol 153:108-121). In this example, a representative compound of the invention, 4-chloro-N-(cycloheptylmethyl)-1-(2-hydroxyethyl)-1H-indole-3-carboxamide (Example 54), was tested.
EAE was induced in SJL female mice (Jackson Labs), using a PLP139-151/CFA Emulsion (Hooke Laboratories, Lawrence Mass.) according to the manufacturer's recommended protocol. Mice were injected subcutaneously at four sites (0.05 mL at each site) in the back with the emulsion. Two sites of injection were in the area of the upper back, approximately 1 cm caudal of the neck line. The other two sites were in the area of the lower back, approximately 2 cm cranial of the base of the tail. Individual animals were then examined daily for clinical signs of neurological deficits scored on a 0 to 5 scale as follows: 0, no abnormality; 0.5, stiff tail; 1, limp tail; 1.5, limp tail with inability to right; 2, paralysis of one limb; 2.5, paralysis of one limb and weakness of one other limb; 3, complete paralysis of both hind limbs; 4, moribund; 5, death. Daily scoring for signs of EAE started on Day 7 after immunization with the first symptoms observed between Days 11 and 15 after immunization. Treatment for each animal began on the second day that the animal developed EAE symptoms. […] The effect of treatment on development of EAE relapses was evaluated by comparing incidence and severity of relapses, and the end scores between the compound-treated groups and the vehicle group. Incidence of relapse were compared using two-tailed Fisher's exact test and the end scores between vehicle and treatment groups were calculated using Wilcoxon's non-parametric test. […]

[1] = tested on: LPA-induced neuropathic pain in C57/Bl6 mice; test: Lysophosphatidic acid (LPA)-induced neuropathy, mechanical hyperalgesia (digital Randall-Selitto); type: in vivo, mouse; details: 1 hour after dosing
Protocol: The therapeutic effects of the compounds of the present invention were assessed in the lysophosphatidic acid (LPA)-induced neuropathy in mice. This model is commonly used to evaluate the potential analgesic activity of compounds designed to treat neuropathic pain in humans (Inoue et al. (2004) Nat Med 10: 712-718; Inoue et al. (2008). Mol Pain 4(6) doi:10.1186/1744-8069-4-6). In this example, a representative compound of the invention, 4-chloro-N-(cycloheptylmethyl)-1-(2-hydroxyethyl)-1H-indole-3-carboxamide (Example 54), was tested.
Neuropathic pain was induced in male, C57/Bl6 mice (Harlan) by an intrathecal injection of 1 nmol LPA (prepared in saline; ENZO) in a 5 μL volume into the spinal cord. Pre-LPA injection, post-LPA injection and post-treatment values for mechanical hyperalgesia were evaluated using a digital Randall-Selitto device (dRS; IITC Life Sciences). Paw compression threshold was measured once at each time point for the left and right paws. […] The readings from the left and right paws were averaged at each time point. […]
Vehicle (0.5% carboxymethylcellulose (CMC)) or between 125-500 mg/kg of a compound of the present invention (dissolved in 0.5% CMC) were administered via oral gavage two days after LPA injection. […] If a significant main effect was detected, Dunnetts' post hoc test was used to compare treatment to vehicle treated animals. […]

Structure (SMILES) | treated animals that developed relapses (EAE in SJL mice; 125 to 500 mg/kg twice daily oral gavage from second day of EAE symptoms, vehicle 50.0%, p=0.0038) | average EAE score on Day 40 (end of the study) (EAE in SJL mice; 125 to 500 mg/kg twice daily oral gavage, 0 to 5 scale, vehicle 1.34, p=0.0021) | day of relapse (the one mouse of the group that relapsed) (EAE in SJL mice; 125 to 500 mg/kg twice daily oral gavage, vehicle mean day of relapse 22, delay p=0.0039) | mean paw compression thresholds compared to pre-treatment baseline ([1]; 125-500 mg/kg oral gavage two days after LPA injection, p<0.05) | mechanical hyperalgesia (paw compression thresholds) compared to pre-treatment baseline ([1]; 100 mg/kg intraperitoneal two days after LPA injection)
O=C(NCC1CCCCCC1)c1cn(CCO)c2cccc(Cl)c12 [Example 54, 4-chloro-N-(cycloheptylmethyl)-1-(2-hydroxyethyl)-1H-indole-3-carboxamide] | 6% | 0.50 | 40 days | significantly increased mean paw compression thresholds | –
NCC1(CC(=O)O)CCCCC1 [gabapentin, reference compound] | – | – | – | – | slight decrease in mechanical hyperalgesia
